Consider 25 compounds from patent US10385097B2, “Ether compounds for treatment of medical disorders” (Achillion Pharmaceuticals, Inc., priority 2015, dated 2019).

Read-outs that look alike come from different tables or passages of the source.

This assay concerns the target T1, Human Factor D (Homo sapiens, UniProt P00746).
T1 construct: purified from human serum; purchased Complement Technology, Inc; host or cells: human serum (natural protein, not recombinant)
The assay can be described thus: Human Factor D Assay. In kind it is biochemical. How it is done:
Example 8. Human Factor D Assay
Human Factor D (purified from human serum, Complement Technology, Inc.) at 80 nM final concentration is incubated with test compound at various concentrations for 5 minutes at room temperature in 50 mM Tris, 1M NaCl, pH 7.5. A synthetic substrate Z-L-Lys-SBzl and DTNB (Ellman's reagent) are added to final concentrations of 100 μM each. Absorbance at 405 nm (A405) is recorded at 30 second intervals for 30 minutes using a microplate spectrophotometer. IC50 values are calculated by nonlinear regression of complement Factor D reaction rates as a function of test compound concentration.

Where [1] appears, read: Table 1, Human Factor D 80 nM, substrate Z-L-Lys-SBzl, read-out: IC50.
The mark [2] stands for this setting: Table 2, Human Factor D 80 nM, substrate Z-L-Lys-SBzl, read-out: IC50.
The mark [3] stands for this setting: Table 3, Human Factor D 80 nM, substrate Z-L-Lys-SBzl, read-out: (IC50 (Stars)).

Usually IC50 stands for the concentration that inhibits the measured activity by half.

T1 sequence (P00746 26-253): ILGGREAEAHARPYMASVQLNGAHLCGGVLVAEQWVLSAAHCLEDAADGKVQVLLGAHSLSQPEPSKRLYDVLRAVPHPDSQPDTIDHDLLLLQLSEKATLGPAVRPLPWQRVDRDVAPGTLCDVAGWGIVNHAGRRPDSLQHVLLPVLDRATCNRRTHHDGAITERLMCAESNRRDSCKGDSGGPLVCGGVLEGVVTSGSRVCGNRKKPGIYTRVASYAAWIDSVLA

`CC(=O)c1cn(CC(=O)N2C[C@H](F)C[C@H]2C(=O)Nc2ccc(OC(F)(F)F)c(F)c2)c2cc(OCP(=O)(O)O)ccc12` [Compound 25, (3-acetyl-1-(2-((2S,4R)-4-fluoro-2-(3-fluoro-4-(trifluoromethoxy)phenylcarbamoyl)pyrrolidin-1-yl)-2-oxoethyl)-1H-indol-6-yloxy)methylphosphonic acid]: the IC50 under setting [1] is below 1000 nM.
With `CC(=O)c1cn(CC(=O)N2C[C@H](F)C[C@H]2C(=O)Nc2cccc(Oc3ccccc3)c2)c2cc(OCP(=O)(O)O)ccc12` [Compound 26, (3-acetyl-1-(2-((2S,4R)-4-fluoro-2-(3-phenoxyphenylcarbamoyl)pyrrolidin-1-yl)-2-oxoethyl)-1H-indol-6-yloxy)methylphosphonic acid], the IC50 under setting [1] was below 1000 nM.
On to `CC(=O)c1cn(CC(=O)N2C[C@H](F)C[C@H]2C(=O)Nc2cccc(OC(F)(F)F)c2F)c2cc(OCP(=O)(O)O)ccc12` [Compound 27, (3-acetyl-1-(2-((2S,4R)-4-fluoro-2-(2-fluoro-3-(trifluoromethoxy)phenylcarbamoyl)pyrrolidin-1-yl)-2-oxoethyl)-1H-indol-6-yloxy)methylphosphonic acid], for which, under setting [1], the 50% inhibitory concentration (IC50) is below 1000 nM.
On to `CC(C)(C)NS(=O)(=O)COc1ccc2c(C(N)=O)nn(CC(=O)N3C[C@H](F)C[C@H]3C(=O)Nc3cccc(-c4ccccc4Cl)c3F)c2c1` [Compound 28], for which the IC50 under setting [1] is below 1000 nM.
In the case of `NC(=O)c1nn(CC(=O)N2C[C@H](F)C[C@H]2C(=O)Nc2cccc(-c3ccccc3Cl)c2F)c2cc(OCS(N)(=O)=O)ccc12` [Compound 29], the half-maximal inhibitory concentration (IC50) under setting [1] was below 1000 nM.
For the compound `CC(=O)c1cn(CC(=O)N2C[C@H](F)C[C@H]2C(=O)NCc2cccc(Cl)c2F)c2cc(Oc3ncccn3)ccc12` [Compound 30, (2S,4R)-1-(2-(3-Acetyl-6-(pyrimidin-2-yloxy)-1H-indol-1-yl)acetyl)-N-(3-chloro-2-fluorobenzyl)-4-fluoropyrrolidine-2-carboxamide], under setting [1], the IC50 is below 1000 nM.
`NC(=O)c1nn(CC(=O)N2C[C@H](F)C[C@H]2C(=O)Nc2cccc(-c3ccccc3Cl)c2F)c2ccc(Oc3cncnc3)cc12` [Compound 31, 1-(2-((2S,4R)-2-((2′-Chloro-2-fluoro-[1,1′-biphenyl]-3-yl)carbamoyl)-4-fluoropyrrolidin-1-yl)-2-oxoethyl)-5-(pyrimidin-5-yloxy)-1H-indazole-3-carboxamide] had an IC50 below 1000 nM.
Take `CC(=O)c1cn(CC(=O)N2C[C@H](F)C[C@H]2C(=O)Nc2cccc(-c3ccccc3Cl)c2F)c2cc(Oc3ncccn3)ccc12` [Compound 32, (2S,4R)-1-(2-(3-Acetyl-6-(pyrimidin-2-yloxy)-1H-indol-1-yl)acetyl)-N-(2′-chloro-2-fluoro-[1,1′-biphenyl]-3-yl)-4-fluoropyrrolidine-2-carboxamide]: the IC50 under setting [1] was below 1000 nM.
Regarding `CC(=O)c1cn(CC(=O)N2C[C@H](F)C[C@H]2C(=O)Nc2cccc(-c3ccccc3Cl)c2F)c2ccc(Oc3ncc(Br)cn3)cc12` [Compound 33, (2S,4R)-1-(2-(3-Acetyl-5-((5-bromopyrimidin-2-yl)oxy)-1H-indol-1-yl)acetyl)-N-(2′-chloro-2-fluoro-[1,1′-biphenyl]-3-yl)-4-fluoropyrrolidine-2-carboxamide], the IC50 under setting [1] was below 1000 nM.
For the compound `CC(=O)c1cn(CC(=O)N2[C@@H]3C[C@@H]3C[C@H]2C(=O)Nc2cccc(-c3ccccc3Cl)c2F)c2ccc(Oc3ncc(Br)cn3)cc12` [Compound 34, (1R,3S,5R)-2-(2-(3-Acetyl-5-((5-bromopyrimidin-2-yl)oxy)-1H-indol-1-yl)acetyl)-N-(2′-chloro-2-fluoro-[1,1′-biphenyl]-3-yl)-2-azabicyclo[3.1.0]hexane-3-carboxamide], the half-inhibitory concentration (IC50) under setting [1] was below 1000 nM.
The same measure, in the same setting: next, `CC(=O)c1cn(CC(=O)N2C[C@H](F)C[C@H]2C(=O)Nc2cccc(Br)n2)c2ccc(Oc3ncc(Br)cn3)cc12` [Compound 35, (2S,4R)-1-(2-(3-acetyl-5-(5-bromopyrimidin-2-yloxy)-1H-indol-1-yl)acetyl)-N-(6-bromopyridin-2-yl)-4-fluoropyrrolidine-2-carboxamide]: below 1000 nM.
In the case of `CC(=O)c1cn(CC(=O)N2C[C@H](F)C[C@H]2C(=O)Nc2cccc(-c3ccccc3Cl)c2F)c2ccc(Oc3cnc(C#N)nc3)cc12` [Compound 36, (2S,4R)-1-(2-(3-acetyl-5-(2-cyanopyrimidin-5-yloxy)-1H-indol-1-yl)acetyl)-N-(2′-chloro-2-fluorobiphenyl-3-yl)-4-fluoropyrrolidine-2-carboxamide], the IC50 under setting [1] is below 1000 nM.
As to `CC(=O)c1cn(CC(=O)N2C[C@H](F)C[C@H]2C(=O)Nc2cccc(-c3ccccc3Cl)c2F)c2ccc(Oc3ncc(F)cn3)cc12` [Compound 37, (2S,4R)-1-(2-(3-acetyl-5-(5-fluoropyrimidin-2-yloxy)-1H-indol-1-yl)acetyl)-N-(2′-chloro-2-fluorobiphenyl-3-yl)-4-fluoropyrrolidine-2-carboxamide], the IC50 under setting [1] is below 1000 nM.
The same measure, in the same setting: next, `CC(=O)c1cn(CC(=O)N2C[C@H](F)C[C@H]2C(=O)Nc2cccc(-c3ccccc3Cl)c2F)c2ccc(Oc3ncccn3)cc12` [Compound 38, (2S,4R)-1-(2-(3-acetyl-5-(pyrimidin-2-yloxy)-1H-indol-1-yl)acetyl)-N-(2′-chloro-2-fluorobiphenyl-3-yl)-4-fluoropyrrolidine-2-carboxamide]: below 1000 nM; `CC(=O)c1cn(CC(=O)N2C[C@H](F)C[C@H]2C(=O)Nc2cccc(Br)n2)c2ccc(Oc3ncccn3)cc12` [Compound 39, (2S,4R)-1-(2-(3-acetyl-5-(pyrimidin-2-yloxy)-1H-indol-1-yl)acetyl)-N-(6-bromopyridin-2-yl)-4-fluoropyrrolidine-2-carboxamide]: below 1000 nM.
Same read-out and setting: for `CC(=O)c1cn(CC(=O)N2C[C@H](F)C[C@H]2C(=O)Nc2cccc(-c3ccccc3Cl)c2F)c2ccc(Oc3ncc(C)cn3)cc12` [Compound 40, (2S,4R)-1-(2-(3-acetyl-5-(5-methylpyrimidin-2-yloxy)-1H-indol-1-yl)acetyl)-N-(2′-chloro-2-fluorobiphenyl-3-yl)-4-fluoropyrrolidine-2-carboxamide] the value was below 1000 nM; for `CC(=O)c1cn(CC(=O)N2C[C@H](F)C[C@H]2C(=O)Nc2cccc(Br)n2)c2ccc(Oc3ncc(C)cn3)cc12` [Compound 41, (2S,4R)-1-(2-(3-acetyl-5-(5-methylpyrimidin-2-yloxy)-1H-indol-1-yl)acetyl)-N-(6-bromopyridin-2-yl)-4-fluoropyrrolidine-2-carboxamide], below 1000 nM; for `CC(=O)c1cn(CC(=O)N2C[C@H](F)C[C@H]2C(=O)Nc2cccc(-c3ccccc3Cl)c2F)c2ccc(Oc3ncc(C(F)(F)F)cn3)cc12` [Compound 42, (2S,4R)-1-(2-(3-acetyl-5-(5-(trifluoromethyl)pyrimidin-2-yloxy)-1H-indol-1-yl)acetyl)-N-(2′-chloro-2-fluorobiphenyl-3-yl)-4-fluoropyrrolidine-2-carboxamide], below 1000 nM.
For the compound `CC(=O)c1cn(CC(=O)N2C[C@H](F)C[C@H]2C(=O)Nc2cccc(-c3ccccc3Cl)c2F)c2ccc(Oc3cnc(Cl)nc3)cc12` [Compound 43, (2S,4R)-1-(2-(3-acetyl-5-(2-chloropyrimidin-5-yloxy)-1H-indol-1-yl)acetyl)-N-(2′-chloro-2-fluorobiphenyl-3-yl)-4-fluoropyrrolidine-2-carboxamide], the IC50 was below 1000 nM.
With `CC(=O)c1cn(CC(=O)N2C[C@H](F)C[C@H]2C(=O)Nc2cccc(-c3ccccc3Cl)c2F)c2ccc(O[C@@H]3CO[C@H]4[C@@H]3OC[C@H]4O)cc12` [Compound 44], the IC50 under setting [2] is below 1000 nM.
`CC(=O)c1cn(CC(=O)N2C[C@H](F)C[C@H]2C(=O)Nc2cccc(Br)n2)c2ccc(O[C@@H]3CO[C@H]4[C@@H]3OC[C@H]4O)cc12` [Compound 45, (2S,4R)-1-(2-(3-acetyl-5-((3R,3aR,6R,6aR)-6-hydroxyhexahydrofuro[3,2-b]furan-3-yloxy)-1H-indol-1-yl)acetyl)-N-(6-bromopyridin-2-yl)-4-fluoropyrrolidine-2-carboxamide]: the IC50 under setting [2] is below 1000 nM.
With `CO[C@@H]1CO[C@H]2[C@@H]1OC[C@H]2Oc1ccc2c(c1)c(C(C)=O)cn2CC(=O)N1C[C@H](F)C[C@H]1C(=O)Nc1cccc(-c2ccccc2Cl)c1F` [Compound 46, (2S,4R)-1-(2-(3-acetyl-5-((3R,3aR,6R,6aR)-6-methoxyhexahydrofuro[3,2-b]furan-3-yloxy)-1H-indol-1-yl)acetyl)-N-(2′-chloro-2-fluorobiphenyl-3-yl)-4-fluoropyrrolidine-2-carboxamide], the half-inhibitory concentration (IC50) under setting [2] is below 1000 nM.
With `CO[C@@H]1CO[C@H]2[C@@H]1OC[C@H]2Oc1ccc2c(c1)c(C(C)=O)cn2CC(=O)N1C[C@H](F)C[C@H]1C(=O)Nc1cccc(Br)n1` [Compound 47, (2S,4R)-1-(2-(3-acetyl-5-((3R,3aR,6R,6aR)-6-methoxyhexahydrofuro[3,2-b]furan-3-yloxy)-1H-indol-1-yl)acetyl)-N-(6-bromopyridin-2-yl)-4-fluoropyrrolidine-2-carboxamide], under setting [2], the IC50 is below 1000 nM.
On to `CC(=O)c1cn(CC(=O)N2C[C@H](F)C[C@H]2C(=O)NCc2ccccc2)c2ccc(OCS(=O)(=O)NC(C)(C)C)cc12` [Compound 129, (2S,4R)-1-(2-(3-Acetyl-5-((N-(tert-butyl)sulfamoyl)methoxy)-1H-indol-1-yl)acetyl)-N-benzyl-4-fluoropyrrolidine-2-carboxamide], for which the concentration for half-maximal inhibition (IC50) under setting [3] was below 1000 nM.
Consider `CC(=O)c1cn(CC(=O)N2C[C@H](F)C[C@H]2C(=O)NCc2ccccc2)c2ccc(OCS(N)(=O)=O)cc12` [Compound 130, (2S,4R)-1-(2-(3-Acetyl-5-(sulfamoylmethoxy)-1H-indol-1-yl)acetyl)-N-benzyl-4-fluoropyrrolidine-2-carboxamide], for which the IC50 under setting [3] is below 1000 nM.
